The test system of one assay is IL-6. Nature of the assay: IL-6 inhibition in LPS-stimulated human peripheral blood mononuclear cells (HTRF). The settings on record: Homo sapiens, PBMC; for EC50: 22 h; for inhibition at 10 µM: read-out: percentage in parentheses after EC50 >10. In general terms: TR-FRET usually uses a lanthanide donor and a delayed reading to cut background.
A further assay deals with GSK3β kinase (Homo sapiens, UniProt P49841). Put plainly: GSK3β kinase activity (Ser/Thr 09 peptide Z-lyte FRET assay). Type of assay: biochemical. The note with it: recombinant kinase, 46 μM ATP, one hour at room temperature; read-out: EC50.
The subject of assay [1] is Wnt-responsive Sp5-Luc reporter in SW480 colon carcinoma cells. Put plainly: Screening assay for Wnt activity (Sp5-Luc reporter gene assay). The settings on record: Homo sapiens; for EC50: SW480; for inhibition at 10 µM: SW480, read-out: percent inhibition at 10 μM. (In general: A reporter such as luciferase makes a cellular process visible.)
The subject of assay [2] is α-smooth muscle actin (aSMA) positive LL29 cells. Nature of the assay: Inhibition of the fibrotic process: αSMA staining in TGF-β1 treated LL29 fibroblasts from IPF patients. The note with it: Homo sapiens, Fibroblast; for EC50: 96 h; for inhibition at 10 µM: read-out: percentage in parentheses after EC50 >10.
The subject of assay [3] is secreted cytokines TNFα, IL-6 and KC-GRO. Put plainly: Secreted cytokines in Lipopolysaccharide-stimulated BV-2 cells (Table 9 does not say which cytokine). The format is cell-based, mouse. The settings on record: Mus musculus, BV-2, 5 h; read-out: EC50.
In another assay the target is DYRK1A kinase (Homo sapiens, UniProt Q13627). Nature of the assay: DYRK1A kinase activity (Ser/Thr 18 peptide Z-lyte FRET assay).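 Also: kinase activity read as coumarin/fluorescein emission ratio after development step, with unphosphorylated and phosphorylated peptide forms setting 0% and 100% controls, values from dose-response curves.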 Type of assay: biochemical. The settings on record: recombinant DYRK1A, 30 μM ATP, one hour at room temperature.
The test system of assay [4] is SW480 colon carcinoma cells. Nature of the assay: Cell viability assay (CellTiter-Glo). The settings on record: Homo sapiens; for EC50: SW480, 96 h; for inhibition at 10 µM: SW480, read-out: percent inhibition at 10 μM. Background: In ATP-based viability assays light output follows the ATP content of the culture.

A value given as a limit tells only on which side of the number the result lay.

GSK3β kinase, sequence (P49841 whole entry): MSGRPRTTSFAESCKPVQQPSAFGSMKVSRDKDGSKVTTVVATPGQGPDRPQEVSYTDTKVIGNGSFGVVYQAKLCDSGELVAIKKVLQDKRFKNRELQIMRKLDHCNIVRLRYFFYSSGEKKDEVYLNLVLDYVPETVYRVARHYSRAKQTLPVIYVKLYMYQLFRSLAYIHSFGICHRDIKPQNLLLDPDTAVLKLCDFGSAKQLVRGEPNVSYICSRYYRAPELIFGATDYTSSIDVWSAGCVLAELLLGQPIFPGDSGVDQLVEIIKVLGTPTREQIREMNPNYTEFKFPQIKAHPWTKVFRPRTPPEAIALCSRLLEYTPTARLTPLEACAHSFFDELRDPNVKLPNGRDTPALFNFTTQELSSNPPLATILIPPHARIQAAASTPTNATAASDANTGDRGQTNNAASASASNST
Protocol for DYRK1A kinase: Representative compounds were screened using the assay procedure for DYRK1A kinase activity as described below.
Each compound was dissolved in DMSO as a 10 mM stock and used to prepare compound source plates.
This is a non-radioactive assay using fluorescence resonance energy transfer (FRET) between coumarin and fluorescein to detect kinase activity which is represented as a ratio of coumarin emission/fluorescein emission.
The mixture was allowed to incubate with the representative compounds for one hour at room temperature. All reactions were performed in duplicate. Unphosphorylated (“0% Control”) and phosphorylated (“100% control”) forms of Ser/Thr 18 served as control reactions. Additionally, an 11-point dose-response curve of Staurosporine (1 uM top) was run to serve as a positive compound control.
After incubation, Development Reagent A was diluted in Development Buffer then added to the reaction and allowed to further incubate for one hour at room temperature.
Dose-response curves were generated and inhibitory concentration (IC50) values were calculated using non-linear regression curve fit in the Dotmatics' Studies Software (Bishops Stortford, UK).

With `CC(C)OC(=O)N1CCC(n2cc(C(=O)Nc3cc4cc(-c5cnn(C)c5)ncc4cn3)cn2)CC1` [Compound 3861, Isopropyl 4-(4-((6-(1-methyl-1H-pyrazol-4-yl)-2,7-naphthyridin-3-yl)carbamoyl)-1H-pyrazol-1-yl)piperidine-1-carboxylate], the half-maximal effective concentration (EC50) (usually the concentration giving half of the maximal effect) in the assay on IL-6 was above 10 µM; on GSK3β kinase it was 1.06 µM; in assay [1], 0.824 µM; in assay [2], 0.597 µM; in assay [3], 0.343 µM; at DYRK1A kinase it was 0.005 µM. Also, the midpoint of the response in assay [4], the EC50, lay at 0.933 µM. In the assay on IL-6, the inhibition at 10 µM turned out to be 5.8%.
For the compound `CN1CCCN(CC(=O)Nc2cc3cc(-c4cnn(C)c4)cnc3cn2)CC1` [Compound 2826, 2-(4-Methyl-1,4-diazepan-1-yl)-N-(3-(1-methyl-1H-pyrazol-4-yl)-1,7-naphthyridin-6-yl)acetamide], the concentration giving a half-maximal response (EC50) with IL-6 is above 10 µM; on GSK3β kinase it was 5.37 µM; in assay [1] it was above 10 µM; in assay [2], above 10 µM; in assay [3], 5.3 µM; on DYRK1A kinase, 0.082 µM. For the same compound, the EC50 in assay [4] is above 10 µM. In addition, the inhibition at 10 µM is 2.1% in the assay with IL-6, 11.2% in assay [1], 37.9% in assay [2] and 20.4% in assay [4].
Turning to `Nc1cncc(-c2ccc3cnc(NC(=O)c4ccc(OC5CCNCC5)cc4)cc3n2)c1` [Compound 804, N-(2-(5-Aminopyridin-3-yl)-1,6-naphthyridin-7-yl)-4-(piperidin-4-yloxy)benzamide], the EC50 came out at 1.59 µM in the assay with IL-6; 4.68 µM at GSK3β kinase; 0.289 µM in assay [1]; 0.482 µM in assay [2]; 0.104 µM in assay [3]; 0.002 µM on DYRK1A kinase. The same compound displayed an EC50 in assay [4] of 0.272 µM.
Take `Nc1cncc(-c2ccc3cnc(NC(=O)c4ccc(OC5CCNCC5)cc4)nc3c2)c1` [Compound 1710, N-(7-(5-Aminopyridin-3-yl)quinazolin-2-yl)-4-(piperidin-4-yloxy)benzamide]: the EC50 in the assay with IL-6 is above 10 µM; on GSK3β kinase it was 8.04 µM; in assay [1], 3.38 µM; in assay [2], above 10 µM; in assay [3], 5.5 µM; on DYRK1A kinase it was 0.002 µM. Moreover, the EC50 in assay [4] was above 10 µM. Moreover, the inhibition at 10 µM in the assay with IL-6 worked out at 7.2%; in assay [2] it was 10.4%; in assay [4], 39.6%.
For the compound `CN1CCN(c2ccc(C(=O)Nc3cc4cc(-c5cnn(C)c5)cnc4cn3)cn2)CC1` [Compound 2871, N-(3-(1-Methyl-1H-pyrazol-4-yl)-1,7-naphthyridin-6-yl)-6-(4-methylpiperazin-1-yl)nicotinamide], the EC50 with IL-6 is above 10 µM; on GSK3β kinase, above 10 µM; in assay [1] it was above 10 µM; in assay [2], 9.77 µM; in assay [3] it was 1.7 µM; on DYRK1A kinase it was 0.016 µM. In assay [4], a half-maximal effect (EC50) was put at 4.69 µM. In addition, the figures for the inhibition at 10 µM (with IL-6; in assay [1]) were 0% and 24.5%, respectively.
In the case of `CN(C)C1CCN(c2cc(C(=O)Nc3cc4nc(-c5cn(C)nn5)ccc4cn3)ccn2)CC1` [Compound 376, 2-(4-(Dimethylamino)piperidin-1-yl)-N-(2-(1-methyl-1H-1,2,3-triazol-4-yl)-1,6-naphthyridin-7-yl)isonicotinamide], the EC50 came to 7.96 µM in the assay with IL-6; 0.665 µM at GSK3β kinase; 3.42 µM in assay [1]; 3.48 µM in assay [2]; 1.7 µM in assay [3]; 0.019 µM on DYRK1A kinase. In assay [4], this compound showed a half-maximal effective concentration (EC50) of 1.51 µM.
`CN1CCN(c2cc(C(=O)Nc3cc4nc(-c5ccc(N)nc5)ccc4cn3)ccn2)CC1` [Compound 807, N-(2-(6-Aminopyridin-3-yl)-1,6-naphthyridin-7-yl)-2-(4-methylpiperazin-1-yl)isonicotinamide]: the EC50 in the assay with IL-6 is 4.2 µM; on GSK3β kinase it was above 10 µM; in assay [1], 0.484 µM; in assay [2], 1.41 µM; in assay [3], 0.265 µM; at DYRK1A kinase, 0.007 µM. In assay [4], this compound came in with an EC50 of 0.86 µM.

For the origin of these results see patent US10703748B2, “Diazanaphthalen-3-yl carboxamides and preparation and use thereof” (Samumed, LLC, priority 2017, dated 2020).
